In PMC10683482, “Offsetting Low-Affinity Carbohydrate Binding with Covalency to Engage Sugar-Specific Proteins for Tumor-Immune Proximity Induction” (ACS Central Science, 2023):

Tests used:
[1] = system: human IgG (polyclonal antirhamnose antibodies); test: BLI monitoring of covalent reaction with human IgG (Figure 4B); type: binding; conditions: 10 μM cARM, 230 μM human IgG, up to 25 h
Description: (§1) The design of rhamnose-SO2F-cARM was again supported by in-silico docking and predicted to preorganize electrophilic SO2F proximal to lysine 104 and serine 53 of the anti-23F heavy chain as well as tyrosine 32 of the light chain (Figure S3). To evaluate the capacity of rhamnose-SO2F-cARMs to specifically label polyclonal antirhamnose antibodies, a tool cARM with a biotin TBD was synthesized (compound 12, Figure 4A, Scheme S5). As an orthogonal kinetics assay to fluorescent gels, tool compound 12 labeling kinetics was first evaluated using an in-house BLI assay and compared to acyl imidazole cARM and ARM analogs. […] Solutions were immediately loaded onto streptavidin probes (Figure 4B, Figure S8). In this assay, rhamnose competition blocks noncovalent antirhamnose recruitment, thus the signal amplitude is directly proportional to the covalently labeled antibody product.
(§2) Figure 4 Selectivity and kinetic analysis of optimized Rha-SO2F-cARMs A. Chemical structures of tool compounds used in this study. B. cARM 12 (10 μM) was incubated with human IgG or BSA (230 μM) then diluted 8× with 100 mM competitor rhamnose spiked kinetics buffer and loaded onto streptavidin probes in BLI. The association plateau was plotted against time to yield the % labeled vs time covalent labeling curve C. Kinetic fluorescence SDS-PAGE assay similar to that in Figure 2D. […]

[2] = system: anti-23F antibody; test: Mass spectrometry study of anti-23F labelling; type: binding, human; conditions: 10 µM cARM, 2.7 µM anti-23F, 45 hours
Protocol: To further confirm selectivity, an MS study was conducted to determine the site of labeling (Figures S10 and S11). […] No other labeling site was detected on the light chain; however, the lability of the SO2F-serine/tyrosine linkage to MS sample preparation protocols likely limited complete labeling site coverage. […] Due to the low labeling efficiency of rhamnose-AI-cARM, no labeling site could be identified. […] Determining the selectivity for antirhamnose antibodies in the presence of off-target cell surface proteins will be the focus of future in vivo studies.
Mass Spectrometry Study – Anti-23F Labelling
Anti-23F (2.7 µM) was incubated with 10 µM of Biotin-AI-cAR M 4 or Biotin-SO2F-cAR M 12, or PBS (antibody only) for 45 hours before MS analysis. Analysis was completed by Bioinformatics Solutions
Inc. Briefly, for intact protein analysis each sample was treated with PNGase F to remove glycans followed by LC-MS analysis. To determine site of labelling, each sample was digested with tryspin, chymostrypsin, and pepsin then analyzed by LC-MS/MS on a timsTOF Pro. Peptide spectra were mapped to a known antibody sequence (anti -23F antibody, Creative Biolabs - PABX-173). No labelling was identified with acyl imidazole containing cARM 4. […]
approxima tely 30% labelling post MS protocol (Figure S11)
Figure S10. Sample analysis of peptide mapping of anti-23F heavy chain. Modification with cARM 12 is […]
(1 picture or pasted object on this page, not shown here)

[3] = molecular target: T1, BSA (Bos taurus, UniProt P02769); test: BLI monitoring of covalent reaction, BSA control; type: binding; conditions: 10 μM cARM, 230 μM BSA in lieu of IgG
T1 construct: purchased Sigma Aldrich A9576-50ML
Description: as §1, §2

[4] = molecular target: anti-23F antibody; test: Kinetic SDS-PAGE fluorescence labelling kinetics; type: binding, human; conditions: rhamnose and antirhamnose antibody; approximated from KI
Protocol: Figure 2 Capacity of Rha-cARMs to specifically covalently engage monoclonal anti-23F and serum anti-rhamnose. A. Chemical structures of the molecules investigated. B. Assessment of covalent vs noncovalent (cARM/ARM) engagement of human serum antirhamnose antibody via an ELISA assay. Each ARM/cARM (2 μM) was incubated with 2% human serum for 48 h and subsequently incubated directly on a streptavidin ELISA plate. Recruitment was evaluated by the addition of anti-IgG or anti-IgM HRP-conjugated secondary antibody with subsequent chromogenic substrate addition. “Comp” represents the addition of competitor rhamnose (500 mM) during 48 h of incubation. […] D. Kinetic SDS-PAGE fluorescence imaging experiment to determine Rha-AI-cARM/anti-23F antibody labeling kinetics using A647-cARM (8). cARM 8 (2–100 μM) was incubated with anti-23F antibody (2 μM) for up to 4 h. A representative fluorescence gel image is included corresponding to compound 8 (50 μM) incubated with either anti-23F antibody or isotype human IgG. Densitometry analysis with ImageJ was used to quantify relative band intensities. […] The error is calculated by alternative fits of initial rates data (all within the linear labeling range). […]
Figure 4 Selectivity and kinetic analysis of optimized Rha-SO2F-cARMs A. Chemical structures of tool compounds used in this study. […] Kinetic fluorescence SDS-PAGE assay similar to that in Figure 2D. […]

Compound: C[C@@H]1O[C@@H](OCCNC(=O)C(CCCCNC(=O)OCCOCCOCCOCCOCCOCCOCCOCCNC(=O)CCCC[C@@H]2SC[C@@H]3NC(=O)N[C@@H]32)NC(=O)c2cccc(S(=O)(=O)F)c2)[C@H](O)[C@H](O)[C@H]1O (some centres unmarked) [compound 12]
- reaction time to plateau of labeled antibody signal [1]: ≤ 10 h
- site of labelling (LC-MS/MS peptide mapping) [2]: only lysine 104 of antibody heavy chain
- labelling by intact MS ([2]; post MS protocol): ~30%
- loading/labeling with BSA [3]: minimal loading/labeling

Compound: C[C@H](O)[C@H](O)[C@@H](O)[C@@H](O)C=O [rhamnose, L-rhamnose]
- Kd [4]: ~15 µM
